According to article PMC12394658, “Discovery of Zharp1-163 as a dual inhibitor of ferroptosis and necroptosis for the treatment of inflammatory disorders and kidney injury” (Cell Death Discovery, 2025):

Legend:
Test in all cases: biochemical
Design in all cases: Kinase selectivity panel of 81 human kinases, ADP-Glo or HTRF, per cent inhibition at 1 uM
SYK = SYK (Homo sapiens, UniProt P43405)
Experimental: (§1) We next sought to determine the binding affinity of Zharp1-163 for RIPK1 or RIPK3 via a binding assay (Fig. 4A). […] Further, we evaluated the selectivity of Zharp1-163 against a panel of 81 kinases (at 1000 nM). […] To elucidate the binding interactions between Zharp1-163 and RIPK1 kinase, we conducted molecular docking studies using the RIPK1 crystal structure (PDB ID: 4NEU). The predicted binding conformations and interaction patterns between Zharp1-163 and the RIPK1 kinase domain are presented in Fig. 4D, E. Like the cocrystallized ligand in the 4NEU crystal complex, Zharp1-163 was predicted to act as a typical type II kinase inhibitor, interacting with the DLG (Asp156-Leu157-Gly158)-out conformation of RIPK1 (Fig. 4D, E). The 2-aminoimidazo [1,2-a] pyridine moiety of Zharp1-163 formed hydrogen bonds with Met95 in the hinge region. Furthermore, the carboxylate group of Zharp1-163 established hydrogen bonds with Asp156 in the DLG-out region. Additionally, the saturated ring of Zharp1-163 was deeply embedded within the hydrophobic allosteric pocket formed by the residues Met66, Met67, Leu70, Val76, Leu129, and Leu159, which is created by the DLG-out conformation in RIPK1 (Fig. 4D, E).  Fig. 4 Zharp1-163 is a selective inhibitor of RIPK1 kinase activity. A Binding affinity curve of Zharp1-163 with RIPK1 and RIPK3. B In an in vitro kinase activity assay, recombinant RIPK1 was incubated with Zharp1-163, after which RIPK1 kinase activity was determined by measuring ATP levels via a luciferase reporter assay system. […] Kinases are marked with dots, where the color of each kinase indicates the level of inhibition achieved by Zharp1-163. D Predicted binding conformation of Zharp1-163. E Schematic representation of the interaction patterns between Zharp1-163 and the key residues in the binding pocket of the RIPK1 kinase. […] NIH3T3-RIPK3 cells were pretreated with the indicated concentrations of Zharp1-163 for 2 h and then treated with AP20187 (100 nM) for 24 h. Cell viability was determined by measuring ATP levels. […] HeLa-MLKL (1–190) cells were pretreated with the indicated concentrations of Zharp1-163 for 2 h and subsequently treated with AP20187 (100 nM) for 24 h. Cell viability was determined by measuring ATP levels. H Viability of IFNβ-primed MEFs at 18 h after stimulation with poly(I:C) plus z-VAD and treatment with Zharp1-163 (10 μM). I Effects of different concentrations of Zharp1-163 on WT or RIPK1 KO HT-29 cells. Cell viability was determined by measuring ATP levels. The data are presented as the mean ± SD of triplicate samples.

PAK2 = PAK2 (Homo sapiens, UniProt Q13177)
Experimental: as §1

BRSK2 = BRSK2 (Homo sapiens, UniProt Q8IWQ3)
Experimental: as §1

EPHA2 = EPHA2 (Homo sapiens, UniProt P29317)
Experimental: as §1

CK1γ2 = target: T1, CK1γ2 (Homo sapiens, UniProt P78368)
T1 construct: gene CSNK1G2
Experimental: as §1

PKCα = target: T2, PKCα (Homo sapiens, UniProt P17252)
T2 construct: gene PRKCA
Experimental: as §1

GSK3β = target: T3, GSK3β (Homo sapiens, UniProt P49841)
T3 construct: gene GSK3B
Experimental: as §1

MAPKAPK2 = MAPKAPK2 (Homo sapiens, UniProt P49137)
Experimental: as §1

MARK4 = MARK4 (Homo sapiens, UniProt Q96L34)
Experimental: as §1

CLK1 = CLK1 (Homo sapiens, UniProt P49759)
Experimental: as §1

CHK2 = target: T4, CHK2 (Homo sapiens, UniProt O96017)
T4 construct: gene CHEK2
Experimental: as §1

PKD2 = target: T5, PKD2 (Homo sapiens, UniProt Q9BZL6)
T5 construct: gene PRKD2
Experimental: as §1

Erk7 = target: T6, Erk7 (Homo sapiens, UniProt Q8TD08)
T6 construct: gene MAPK15
Experimental: as §1

HGK = target: T7, HGK (Homo sapiens, UniProt O95819)
T7 construct: gene MAP4K4
Experimental: as §1

Chain of CLK1 (P49759 whole entry): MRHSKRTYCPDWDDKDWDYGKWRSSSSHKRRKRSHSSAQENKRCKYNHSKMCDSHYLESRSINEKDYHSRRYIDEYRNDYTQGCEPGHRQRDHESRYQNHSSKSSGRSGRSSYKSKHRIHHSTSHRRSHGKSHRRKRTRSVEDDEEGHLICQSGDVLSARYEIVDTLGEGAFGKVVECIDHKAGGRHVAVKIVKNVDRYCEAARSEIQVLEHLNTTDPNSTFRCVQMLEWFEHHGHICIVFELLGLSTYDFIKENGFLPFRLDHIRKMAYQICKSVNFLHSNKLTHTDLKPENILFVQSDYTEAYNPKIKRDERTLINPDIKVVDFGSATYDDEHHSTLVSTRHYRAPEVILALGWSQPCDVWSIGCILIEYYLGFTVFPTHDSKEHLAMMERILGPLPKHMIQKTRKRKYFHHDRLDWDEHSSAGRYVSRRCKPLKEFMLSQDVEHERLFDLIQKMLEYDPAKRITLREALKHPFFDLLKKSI
T1 sequence (P78368 whole entry): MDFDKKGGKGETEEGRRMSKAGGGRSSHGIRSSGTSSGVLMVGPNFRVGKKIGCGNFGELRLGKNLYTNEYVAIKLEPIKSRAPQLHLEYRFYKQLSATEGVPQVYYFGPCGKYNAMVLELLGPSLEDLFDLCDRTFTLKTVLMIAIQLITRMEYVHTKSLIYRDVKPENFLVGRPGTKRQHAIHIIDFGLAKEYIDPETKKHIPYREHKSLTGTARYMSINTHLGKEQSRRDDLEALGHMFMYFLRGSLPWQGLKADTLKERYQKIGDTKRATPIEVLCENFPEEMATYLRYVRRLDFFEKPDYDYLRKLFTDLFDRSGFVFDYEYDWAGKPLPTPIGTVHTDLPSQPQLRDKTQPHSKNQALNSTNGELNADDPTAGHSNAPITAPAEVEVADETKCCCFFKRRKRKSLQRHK
T7 sequence (O95819 whole entry): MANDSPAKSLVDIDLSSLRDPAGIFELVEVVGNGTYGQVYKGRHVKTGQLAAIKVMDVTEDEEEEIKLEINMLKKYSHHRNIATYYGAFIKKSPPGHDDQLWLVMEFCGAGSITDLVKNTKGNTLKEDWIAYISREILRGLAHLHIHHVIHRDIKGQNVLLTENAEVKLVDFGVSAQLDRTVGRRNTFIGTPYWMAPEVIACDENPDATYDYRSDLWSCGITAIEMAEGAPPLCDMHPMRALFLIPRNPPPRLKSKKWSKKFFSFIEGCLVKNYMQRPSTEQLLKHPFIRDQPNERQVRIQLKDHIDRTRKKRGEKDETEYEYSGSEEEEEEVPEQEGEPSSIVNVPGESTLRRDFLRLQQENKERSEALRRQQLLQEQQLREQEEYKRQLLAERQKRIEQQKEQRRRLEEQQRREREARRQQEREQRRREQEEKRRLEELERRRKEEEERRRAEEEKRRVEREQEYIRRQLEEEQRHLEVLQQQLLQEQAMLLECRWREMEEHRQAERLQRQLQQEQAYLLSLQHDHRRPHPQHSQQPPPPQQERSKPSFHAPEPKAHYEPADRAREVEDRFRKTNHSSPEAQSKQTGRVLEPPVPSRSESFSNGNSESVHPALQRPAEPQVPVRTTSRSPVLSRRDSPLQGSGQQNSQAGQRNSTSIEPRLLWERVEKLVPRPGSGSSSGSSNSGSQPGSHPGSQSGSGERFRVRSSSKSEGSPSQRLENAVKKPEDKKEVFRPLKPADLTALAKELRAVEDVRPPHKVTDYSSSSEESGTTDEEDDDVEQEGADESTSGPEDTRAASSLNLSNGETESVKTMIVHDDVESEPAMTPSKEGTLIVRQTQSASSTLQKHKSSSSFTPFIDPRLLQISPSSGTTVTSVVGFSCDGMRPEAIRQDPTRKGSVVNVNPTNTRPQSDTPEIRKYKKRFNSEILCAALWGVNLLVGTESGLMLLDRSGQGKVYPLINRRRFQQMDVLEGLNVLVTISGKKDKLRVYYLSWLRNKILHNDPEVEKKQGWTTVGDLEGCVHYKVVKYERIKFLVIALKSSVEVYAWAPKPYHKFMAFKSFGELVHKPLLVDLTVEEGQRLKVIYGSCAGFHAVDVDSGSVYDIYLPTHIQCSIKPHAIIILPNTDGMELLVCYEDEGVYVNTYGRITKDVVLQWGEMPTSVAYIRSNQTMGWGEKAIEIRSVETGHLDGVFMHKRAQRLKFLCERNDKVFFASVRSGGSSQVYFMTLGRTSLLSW
Chain of MARK4 (Q96L34 whole entry): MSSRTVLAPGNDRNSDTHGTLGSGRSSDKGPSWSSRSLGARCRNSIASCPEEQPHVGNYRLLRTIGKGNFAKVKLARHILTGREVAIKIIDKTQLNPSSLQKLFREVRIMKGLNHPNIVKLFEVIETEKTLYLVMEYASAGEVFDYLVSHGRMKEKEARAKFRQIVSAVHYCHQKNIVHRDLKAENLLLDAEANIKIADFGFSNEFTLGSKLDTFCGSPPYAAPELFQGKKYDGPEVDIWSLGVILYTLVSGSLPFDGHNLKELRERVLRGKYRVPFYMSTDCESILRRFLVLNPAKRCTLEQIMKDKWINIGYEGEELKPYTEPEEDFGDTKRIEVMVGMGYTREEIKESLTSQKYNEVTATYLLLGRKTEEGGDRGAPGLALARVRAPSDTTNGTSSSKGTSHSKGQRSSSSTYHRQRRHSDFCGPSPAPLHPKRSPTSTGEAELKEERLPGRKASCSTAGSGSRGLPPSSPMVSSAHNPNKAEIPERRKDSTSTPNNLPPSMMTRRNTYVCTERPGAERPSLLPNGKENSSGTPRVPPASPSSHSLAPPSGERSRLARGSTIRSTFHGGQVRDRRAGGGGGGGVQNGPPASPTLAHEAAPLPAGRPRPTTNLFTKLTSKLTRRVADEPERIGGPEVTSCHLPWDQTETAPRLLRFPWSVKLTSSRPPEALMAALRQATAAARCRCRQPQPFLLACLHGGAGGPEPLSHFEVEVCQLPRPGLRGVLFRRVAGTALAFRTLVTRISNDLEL
Chain of MAPKAPK2 (P49137 whole entry): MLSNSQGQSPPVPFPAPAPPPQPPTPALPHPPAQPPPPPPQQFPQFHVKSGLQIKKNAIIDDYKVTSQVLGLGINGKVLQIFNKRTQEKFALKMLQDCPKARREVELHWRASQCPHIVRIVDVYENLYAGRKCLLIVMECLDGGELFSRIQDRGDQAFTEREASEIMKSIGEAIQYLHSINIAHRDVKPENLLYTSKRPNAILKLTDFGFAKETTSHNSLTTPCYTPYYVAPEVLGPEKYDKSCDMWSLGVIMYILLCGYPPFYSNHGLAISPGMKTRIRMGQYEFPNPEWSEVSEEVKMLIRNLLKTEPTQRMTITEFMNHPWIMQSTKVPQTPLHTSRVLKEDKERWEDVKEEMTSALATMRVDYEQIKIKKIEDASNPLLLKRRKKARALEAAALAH
T5 sequence (Q9BZL6 whole entry): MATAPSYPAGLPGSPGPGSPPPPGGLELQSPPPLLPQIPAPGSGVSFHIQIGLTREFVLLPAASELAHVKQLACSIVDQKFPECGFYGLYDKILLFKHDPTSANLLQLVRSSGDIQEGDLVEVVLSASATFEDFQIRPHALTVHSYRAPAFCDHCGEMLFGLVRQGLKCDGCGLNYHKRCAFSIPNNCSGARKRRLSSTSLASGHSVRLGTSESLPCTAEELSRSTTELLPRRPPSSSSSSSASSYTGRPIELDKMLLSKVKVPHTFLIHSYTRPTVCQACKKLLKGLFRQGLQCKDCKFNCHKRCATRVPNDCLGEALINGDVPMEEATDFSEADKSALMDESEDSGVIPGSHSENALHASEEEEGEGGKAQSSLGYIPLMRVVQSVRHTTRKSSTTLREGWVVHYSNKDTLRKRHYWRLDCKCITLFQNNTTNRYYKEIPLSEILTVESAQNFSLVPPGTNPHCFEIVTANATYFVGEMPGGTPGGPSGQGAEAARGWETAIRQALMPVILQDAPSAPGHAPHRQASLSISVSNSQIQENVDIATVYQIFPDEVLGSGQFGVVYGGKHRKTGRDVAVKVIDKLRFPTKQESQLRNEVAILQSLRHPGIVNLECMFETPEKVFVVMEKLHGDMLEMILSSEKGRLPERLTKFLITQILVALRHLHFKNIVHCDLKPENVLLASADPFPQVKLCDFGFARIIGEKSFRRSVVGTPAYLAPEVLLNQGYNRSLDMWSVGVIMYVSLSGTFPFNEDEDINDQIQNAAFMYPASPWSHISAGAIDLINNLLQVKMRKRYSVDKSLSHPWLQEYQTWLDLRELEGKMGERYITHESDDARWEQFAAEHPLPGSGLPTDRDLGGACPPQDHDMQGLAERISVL
T3 sequence (P49841 whole entry): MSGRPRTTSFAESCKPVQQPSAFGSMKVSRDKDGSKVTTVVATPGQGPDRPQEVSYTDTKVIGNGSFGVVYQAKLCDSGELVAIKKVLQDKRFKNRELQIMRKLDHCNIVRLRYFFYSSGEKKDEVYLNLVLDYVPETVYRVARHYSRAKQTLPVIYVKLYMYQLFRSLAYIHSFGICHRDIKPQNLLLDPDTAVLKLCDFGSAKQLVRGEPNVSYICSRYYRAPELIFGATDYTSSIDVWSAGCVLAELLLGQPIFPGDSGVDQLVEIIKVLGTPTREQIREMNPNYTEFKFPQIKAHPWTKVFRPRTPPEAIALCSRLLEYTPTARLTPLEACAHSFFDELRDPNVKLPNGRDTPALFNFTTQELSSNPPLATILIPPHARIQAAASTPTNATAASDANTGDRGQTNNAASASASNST

Work on Nc1cn2cc(-c3cnc4c(c3)N(C(=O)OC3CCCCC3)CCO4)ccc2n1 [Zharp1-163] yielded an inhibition at 1 µM (SYK; replicate Data1) of 5.12%, an inhibition at 1 µM (SYK; replicate Data2) of 4.56% and an inhibition at 1 µM (PAK2; replicate Data1) of -3.2%. The inhibition at 1 µM (PAK2; replicate Data2) was -2.35%, the inhibition at 1 µM (BRSK2; replicate Data1) was -6.15% and the inhibition at 1 µM (BRSK2; replicate Data2) was -3.32%. It also gave an inhibition at 1 µM (EPHA2; replicate Data1) of -8.55%, an inhibition at 1 µM (EPHA2; replicate Data2) of -9.14% and an inhibition at 1 µM (CK1γ2; replicate Data1) of -3.03%. For the same compound, the inhibition at 1 µM (CK1γ2; replicate Data2) was 8.14%, the inhibition at 1 µM (PKCα; replicate Data1) was -5.43% and the inhibition at 1 µM (PKCα; replicate Data2) was -7.15%. It also gave an inhibition at 1 µM (GSK3β; replicate Data1) of 11.8%, an inhibition at 1 µM (GSK3β; replicate Data2) of -2.82% and an inhibition at 1 µM (MAPKAPK2; replicate Data1) of -3.5%. For the same compound, the inhibition at 1 µM (MAPKAPK2; replicate Data2) was -31.8%, the inhibition at 1 µM (MARK4; replicate Data1) was 14.3% and the inhibition at 1 µM (MARK4; replicate Data2) was 0.49%. The inhibition at 1 µM (CLK1; replicate Data1) was 38.1%, the inhibition at 1 µM (CLK1; replicate Data2) was 33.2% and the inhibition at 1 µM (CHK2; replicate Data1) was 15.8%. The inhibition at 1 µM (CHK2; replicate Data2) was 1.85%, the inhibition at 1 µM (PKD2; replicate Data1) was 12% and the inhibition at 1 µM (PKD2; replicate Data2) was 6.79%. The inhibition at 1 µM (Erk7; replicate Data1) was 5.82%, the inhibition at 1 µM (Erk7; replicate Data2) was 0.29% and the inhibition at 1 µM (HGK; replicate Data1) was 4.09%. For the same compound, the inhibition at 1 µM (HGK; replicate Data2) was 11.5%.
